Experimental data as given in patent US20230035586A1, “Salts of R-ketorolac” (Revere Pharmaceuticals, Inc., priority 2019, published 2023).

What was measured:
[1] = Dynamic Vapor Sorption (DVS) moisture sorption/desorption; type: physicochemical; settings: for weight gain from 5-75% RH / weight gain from 5-75% RH, moles of H2O / weight gain above 75% RH / weight gain above 75% RH, moles of H2O: DVS sorption; for weight gain above 75% RH / weight gain above 75% RH, moles of H2O: above 75% RH (up to 95% RH); for form change after DVS, based on XRPD: XRPD of post-DVS solids
Protocol: DVS analysis (FIG. 5) was conducted by first equilibrating at ambient RH, and then dropping to 5% RH. It was then increased to 95% RH and cycled back to 5% RH. The sample was held at 5% RH until XRPD analysis. Upon equilibration from ambient RH (-48%) to 5% RH, the sample loses 0.4 wt %, equivalent to ˜0.1 moles of H2O. From 5-75% RH, the material undergoes a 1.2 wt % gain (˜0.25 moles of H2O). Above 75% RH, the material gains ˜12 wt % (˜3 moles of H2O).
The crystalline salt of R-ketorolac and meglumine was analyzed by DVS (FIG. 10). […] Upon equilibration from ambient RH (˜50%) to 5% RH, the sample loses 0.1 wt %, equivalent to <0.1 mole of H2O. From 5-75% RH, the material undergoes a 0.9 wt % gain (˜0.25 moles of H2O). Above 75% RH, the material gains ˜37 wt % (>12 moles of H2O). Upon desorption to 5% RH, which occurs with hysteresis, the sample retains ˜9.6 wt % (˜2.7 moles of H2O).
Moisture sorption/desorption data were collected on a VTI SGA-100 Vapor Sorption Analyzer. NaCl and PVP were used as calibration standards. Samples were not dried prior to analysis. Sorption and desorption data were collected over a range from 5% to 95% RH at 10% RH increments under a nitrogen purge. The equilibrium criterion used for analysis was less than 0.0100% weight change in 5 minutes with a maximum equilibration time of 3 hours. Data were not corrected for the initial moisture content of the samples.

[2] = in vivo; cited from earlier work

weight retained upon desorption to 5% RH ([1]; DVS desorption to 5% RH) [wt %]	weight retained upon desorption to 5% RH, moles of H2O ([1]; DVS desorption to 5% RH)	hygroscopicity above 75% RH ([1]; DVS, above 75% RH)	hygroscopicity below 75% RH ([1]; DVS, below 75% RH)	Compound	moisture after desorption to 5% RH (in words) ([1]; DVS desorption to 5% RH, small hysteresis)	weight gain from 5-75% RH [1] [wt %]	weight gain from 5-75% RH, moles of H2O [1]	weight gain above 75% RH [1] [wt %]	weight gain above 75% RH, moles of H2O [1]	weight loss upon equilibration from ambient RH to 5% RH ([1]; DVS) [wt %]	weight loss upon equilibration from ambient RH to 5% RH, equivalent moles of H2O ([1]; DVS)	form change after DVS, based on XRPD [1]	tolerability in rat studies [2]
–	–	–	–	NC(CO)(CO)CO.O=C(c1ccccc1)c1ccc2n1CC[C@H]2C(=O)O [R-ketorolac tromethamine salt]	all the gained moisture is lost	1.2	~0.25 moles of H2O	~12	~3 moles of H2O	0.4	~0.1 moles of H2O	form change is not observed	–
~9.6	~2.7 moles of H2O	highly hygroscopic	limited hygroscopicity	CNCC(O)C(O)C(O)C(O)CO.O=C(c1ccccc1)c1ccc2n1CCC2C(=O)O (stereo not drawn) [R-ketorolac meglumine crystalline salt, R-ketorolac meglumine salt]	–	0.9	~0.25 moles of H2O	~37	> 12 moles of H2O	0.1	< 0.1 moles of H2O	form change is not observed	–
–	–	–	–	O=C(c1ccccc1)c1ccc2n1CC[C@@H]2C(=O)O [S-ketorolac]	–	–	–	–	–	–	–	–	severe dose limiting toxicities
–	–	–	–	O=C(c1ccccc1)c1ccc2n1CC[C@H]2C(=O)O [R-ketorolac]	–	–	–	–	–	–	–	–	much better tolerated than S-ketorolac
